ChEMBL document CHEMBL1144888, “Synthesis, structure-activity relationship, and evaluation of SR141716 analogues: development of central cannabinoid receptor ligands with lower lipophilicity” (J Med Chem, 2003)
pKi: −log10 of the molar value.

Test system: not listed separately
Experiment: Partition coefficient (logD7.4)
Settings: octanol/water, pH 7.4

logD	SMILES
5.14	O=C(NN1CCCCC1)c1cc(-c2ccc(Cl)cc2)n(-c2ccc(Cl)cc2Cl)n1

Target: Cannabinoid receptor 1 (Rattus norvegicus, UniProt P20272)
Settings: not given

Cannabinoid receptor 1, sequence (P20272 whole entry): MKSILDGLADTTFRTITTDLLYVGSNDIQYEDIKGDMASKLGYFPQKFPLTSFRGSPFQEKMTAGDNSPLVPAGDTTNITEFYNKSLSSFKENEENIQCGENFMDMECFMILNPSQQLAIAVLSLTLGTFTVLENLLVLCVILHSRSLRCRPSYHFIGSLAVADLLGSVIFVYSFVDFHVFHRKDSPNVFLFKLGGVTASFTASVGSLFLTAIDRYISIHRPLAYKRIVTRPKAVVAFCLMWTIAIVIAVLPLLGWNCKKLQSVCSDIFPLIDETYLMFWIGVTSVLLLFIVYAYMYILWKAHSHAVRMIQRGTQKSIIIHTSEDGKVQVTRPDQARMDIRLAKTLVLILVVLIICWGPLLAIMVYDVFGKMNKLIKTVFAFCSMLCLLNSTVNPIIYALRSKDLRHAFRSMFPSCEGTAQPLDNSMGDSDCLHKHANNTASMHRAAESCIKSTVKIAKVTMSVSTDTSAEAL

SMILES	pKi
COc1ccc(-c2c(F)c(C(=O)NN3CCCCC3)nn2-c2ccccc2Cl)cc1	7.74
Cc1c(C(=O)NN2CCCCC2)nn(-c2ccc(Cl)cc2Cl)c1-c1ccc(OC2CCCN2C(=O)OC(C)(C)C)cc1 (centres undefined)	6.41
COc1ccc(-c2c(C)c(C(=O)NN3CCCCC3)nn2-c2ccccc2OC)cc1	6.36
COc1ccc(-c2c(C)c(C(=O)NN3CCCCC3)nn2-c2ccccc2F)cc1	7.42
COc1ccc(-c2c(C)c(C(=O)NN3CCCCC3)nn2-c2ccccc2Cl)cc1	8.10
Cc1c(C(=O)NN2CCOCC2)nn(-c2ccc(Cl)cc2Cl)c1-c1ccc(I)cc1	8.35

More lines, now with the values ahead:

pKi	SMILES
8.21	COc1ccc(-c2c(Br)c(C(=O)NN3CCCCC3)nn2-c2ccccc2Cl)cc1
6.98	Cc1c(C(=O)NN2CCCCC2)nn(-c2ccc(Cl)cc2Cl)c1-c1ccc(O)cc1
8.05	O=C(NN1CCCCC1)c1cc(-c2ccc(Cl)cc2)n(-c2ccc(Cl)cc2Cl)n1
8.28	COc1ccc(-c2c(Br)c(C(=O)NN3CCCCCC3)nn2-c2ccc(Cl)cc2Cl)cc1
8.15	Cc1c(C(=O)NN2CCCCC2)nn(-c2ccc(Cl)cc2Cl)c1-c1ccc2c(c1)OCO2
8.85	O=C(NN1CCCCC1)c1nn(-c2ccc(Cl)cc2Cl)c(-c2ccc(Cl)cc2)c1Br
8.15	COc1ccc(-c2c(C)c(C(=O)NN3CCCCCC3)nn2-c2ccc(Cl)cc2Cl)cc1
